In patent US10543183B2, “Treatment and diagnosis of melanoma” (The Rockefeller University, priority 2012, dated 2020):
Counter-ions that a name gives are not always drawn.

Experiments:
[1] = test system: B16F10 mouse melanoma cells; experiment: subcutaneous B16F10 tumor growth in mice; type: in vivo; conditions: chow 100 mg/kg
Protocol: First, the cells were treated with 500 μg/mL DTIC for one week. Following this initial DTIC treatment, the remaining (˜10%) viable cells were allowed to recover for one week, after which 750 μg/mL of DTIC was added to the cell media for 5 days. Subsequent to this high-dose treatment, the cells were allowed to recover in the presence of low-dose DTIC (100 μg/mL) for one week. The cells were then continuously cultured in cell media containing 200 μg/mL DTIC for at least one month prior to grafting the cells into mice. DTIC was added to fresh cancer cell media every 3 days. […] DTIC was dissolved in the presence of citric acid (1:1 by weight) in water and administered daily by intraperitoneal injection.

MeWo melanoma cells = experiment: orthotopic metastasis assay after tumor excision; type: in vivo, mouse; conditions: oral, chow 100 mg/kg for 1 month
Protocol: To determine the effect of GW3965 treatment on lung colonization by melanoma cells dissociated from an orthotopic site, 1×10^6 MeWo cells expressing a luciferase reporter were subcutaneously injected into both lower flanks of NOD Scid mice. Upon the formation of tumors measuring ˜300 mm^3 in volume, the tumors were excised and the mice were randomly assigned to a control diet or a GW3965-supplemented diet (100 mg/kg) treatment. One month after tumor excision, the lungs were extracted and lung colonization was measured by ex vivo bioluminescence imaging. To histologically confirm the extent of melanoma lung colonization, lungs were then fixed in 4% PFA overnight, paraffin-embedded, section into […] increments and stained for human vimentin (VP-V684, Vector Laboratories).

[2] = test system: Tyr::CreER; B-RafV600E/+; Ptenlox/+ and Ptenlox/lox mice; experiment: genetically-initiated model of melanoma progression; type: in vivo, mouse
Protocol: The Tyr::CreER; B-Raf^V600E/+; Pten^lox/+/Tyr::CreER; B-Raf^V600E/+; Pten^lox/lox conditional model of melanoma progression was previously established and characterized by Dankort et al. (2009). Briefly, melanoma in these mice was induced at 6 weeks of age by intraperitoneally injecting 4-HT (H6278, 70% isomer, Sigma-Aldrich, St Louis, Mo.) at 25 mg/kg administered in peanut oil on three consecutive days. The 4-HT stock solution was prepared by dissolving it in 100% EtOH at 50 mg/mL by heating at 45° C. for 5 min and mixing. Once dissolved, the stock 4-HT solution was then diluted by 10-fold in peanut oil, yielding a 5 mg/mL 4-HT working solution that was then injected into mice. After the first 4-HT injection, mice were blindedly assigned to receive either a control diet or a diet supplemented with GW3965 (100 mg/kg). Mice were examined three times a week for the presence and progression of melanoma lesions. At day 35, dorsal skin samples were harvested from control-treated and GW3965-treated mice, fixed in 4% PFA and photographed at 10×. The percentage of pigmented melanoma lesion area out of the total skin area was quantified using ImageJ. For survival analyses, mice were monitored daily for melanoma progression and euthanized according to a standard body condition score, taking into account initial signs of moribund state and discomfort associated with the progression of melanoma burden. Post-mortem, the lungs, brains, and salivary glands were harvested and examined for the presence of macroscopic melanoma lesions.

[3] = test system: MeWo brain metastatic derivative cells; experiment: brain metastasis assay, intracardiac injection; type: in vivo, mouse; conditions: oral, diet 100 mg/kg
Protocol: Melanoma cells used for in vivo metastasis assays were transduced with a stably expressed retroviral construct encoding a luciferase reporter gene (Ponomarev et al., 2004), allowing us to monitor the in vivo progression of melanoma cells by bioluminescence imaging. The following numbers of melanoma cells, resuspended in 100 μL of PBS, were injected intravenously via the tail-vein: 4×10^4 MeWo cells, 2.5×10^5 HT-144 cells, 2×10^5 SK-Mel-334.2 cells, 5×10^4B 16F10 cells, and 1×10^5YUMM cells. The MeWo, HT-144, and SK-Mel-334.2 cells were injected into 6-8 week-old sex-matched NOD scid mice, while the B16F10 and YUMM cells were injected into 6-8 week-old sex-matched C57BL/6 mice. In all experiments assessing at the effects of GW3965 on metastasis formation, mice were pre-treated on a control diet or a GW3965-supplemented diet (20 mg/kg) for 10 days. To assess the effect of GW3965 treatment on brain metastasis, 1×10^5 MeWo brain-metastatic derivatives were injected intracardially into athymic nude mice. Immediately following injection, mice were randomly assigned to a control diet or GW3965-supplemented diet (100 mg/kg). […]

[4] = test system: B-RafV600E/+; Pten−/−; CDKN2A−/− primary mouse melanoma cells; experiment: B-RafV600E/+; Pten−/−; CDKN2A−/− melanoma cells in syngeneic mice; type: in vivo
Protocol: Melanoma cells used for in vivo metastasis assays were transduced with a stably expressed retroviral construct encoding a luciferase reporter gene (Ponomarev et al., 2004), allowing us to monitor the in vivo progression of melanoma cells by bioluminescence imaging. The following numbers of melanoma cells, resuspended in 100 μL of PBS, were injected intravenously via the tail-vein: 4×10^4 MeWo cells, 2.5×10^5 HT-144 cells, 2×10^5 SK-Mel-334.2 cells, 5×10^4B 16F10 cells, and 1×10^5YUMM cells. The MeWo, HT-144, and SK-Mel-334.2 cells were injected into 6-8 week-old sex-matched NOD scid mice, while the B16F10 and YUMM cells were injected into 6-8 week-old sex-matched C57BL/6 mice. […] To assess the effect of GW3965 treatment on brain metastasis, 1×10^5 MeWo brain-metastatic derivatives were injected intracardially into athymic nude mice. Immediately following injection, mice were randomly assigned to a control diet or GW3965-supplemented diet (100 mg/kg). To determine whether oral delivery of GW3965 can inhibit the progression of incipient metastasis, NOD Scid mice were intravenously injected with 4×10^4MeWo cells and the cells were allowed to colonize the lungs for 42 days, after which mice were blindedly assigned to a control diet or a GW3965-supplemented diet (100 mg/kg) treatment.

[5] = test system: breast cancer, renal cell cancer and pancreatic cancer cell lines; experiment: endothelial recruitment by other cancer types; type: cell-based, human
[6] = test system: MeWo-LM2 cells or endothelial cells; experiment: serum starvation assay; type: cell-based, human; conditions: 100 μM, 0.2% FBS
Protocol: The number of viable cells was counter after 8, 16, and 24 hours.

Compound	suppression of tumor growth by DTIC-resistant B16F10 clone [1]	inhibition of lung colonization by disseminated melanoma cells post-tumor excision (MeWo melanoma cells)	number of lymphatic metastases detected post-mortem ([2]; Ptenlox/lox mice, chow 100 mg/kg)	tumor progression ([2]; oral, diet 100 mg/kg after melanoma initiation)	overall survival times ([2]; oral, diet 100 mg/kg, Ptenlox/+ and Ptenlox/lox mice)	brain colonization [3]	systemic dissemination [3]	tumor growth ([4]; chow 100 mg/kg)	lung metastasis ([4]; diet 100 mg/kg)	overall survival ([4]; diet 100 mg/kg)	endothelial recruitment across breast, renal cell and pancreatic cancer [5]	survival in serum starvation conditions [6]
O=C(O)Cc1cccc(OCCCN(Cc2cccc(C(F)(F)F)c2Cl)CC(c2ccccc2)c2ccccc2)c1 [GW3965 2, 3-[3-[N-(2-Chloro-3-trifluoromethylbenzyl)-(2,2-diphenylethyl)amino]propyloxy] phenylacetic acid hydrochloride]	more than 70%	17 fold	decrease	attenuated	significantly extended	inhibited	inhibited	robustly inhibited	robustly inhibited	extended	–	–
recombinant ApoE3: recombinant human ApoE3 (4696, BioVision)	–	–	–	–	–	–	–	–	–	–	inhibited	did not affect
